One data set concerns the target T1, SARS-CoV-2 M^pro (Severe acute respiratory syndrome coronavirus 2, UniProt P0DTD1).
T1 construct: in vitro FRET-based assay using recombinant M^pro; purchased Beyotime P0315M
As to the kind of experiment: biochemical. The conditions noted are these: for inhibition curve, in words: 0.01-20 μM; for change of inhibition results upon addition of detergent: 0.1% Triton X-100, aggregation control.

In a further data set the test system is MRC-5 cells. The experiment in a line: Cytotoxicity, MTT test. As to conditions: 72 h, 100 to 3.12 μg/mL.
In data set [1] the test system is Human coronavirus hCoV-229. The data set is classed as cell-based.
In another data set the test system is HCoV 229E. As to the kind of experiment: Viral titres (TCID50) in MRC-5 cells. The conditions noted are these: MRC-5, 72 h, different concentrations.
Where [2] appears, read: Figure 2 panels a-k, dose-response curve, mean ± SEM, n = 3, read-out: IC50.
The mark [3] stands for this setting: IC50, Figure 2 panels a-k, dose-response curve, mean ± SEM, n = 3.
The mark [4] stands for this setting: Figure 2(l), Trial 1, read-out: IC50.
Where [5] appears, read: Figure 2(l), Trial 2, read-out: IC50.
The mark [6] stands for this setting: Figure 2(l), With Triton-X100, read-out: IC50.
[7] abbreviates: Figure 4, With Triton-X100 (0.1%), unit inferred, read-out: IC50.
Setting [8] is: Figure 4, Without Triton-X100, unit inferred, read-out: IC50.

Like-named read-outs stand apart in the source and are kept apart here.

Take `Cc1ccc(-n2c(/C=C/c3ccc([N+](=O)[O-])cc3)nc3ccccc3c2=O)cc1` [Compound 3]: the IC50 (usually the concentration that inhibits the measured activity by half) at SARS-CoV-2 M^pro (setting [2]) was found to be 38300 ± 18300 nM.
As to `Cc1ccc(-c2oc3ccccc3c(=O)c2O)cc1` [Compound 2], on SARS-CoV-2 M^pro, the “inhibition curve, in words” value is reported as “atypical inhibition results”.
On to `O=C1C2C3C=CC(C3)C2C(=O)C2C3C=CC(C3)C12` (centres unmarked) [Compound 5], for which the IC50 against SARS-CoV-2 M^pro (setting [3]) was 9790 ± 1450 nM.
On the same count and under the same terms, in the case of `Nc1nnc(Sc2ccc([N+](=O)[O-])cn2)s1` [Compound 4] it was 6220 ± 1790 nM.
Take `Nc1nnc(Sc2ncc([N+](=O)[O-])s2)s1` [Compound 9, halicin]: the “change of inhibition results upon addition of detergent” value at SARS-CoV-2 M^pro is reported as “did not change significantly”. In addition, the IC50 against SARS-CoV-2 M^pro (IC50) came to 420 nM; against SARS-CoV-2 M^pro (IC50, Figure 2(l), Trial 1), 420 nM; against SARS-CoV-2 M^pro (IC50, Figure 2(l), Trial 2), 419 nM; against SARS-CoV-2 M^pro (setting [3]) it was 420 ± 49 nM; on SARS-CoV-2 M^pro (IC50, Figure 4, With Triton-X100 (0.1%), unit inferred), 461 ± 81 nM. Further, in the data set with MRC-5 cells, the “cellular toxicity (cell viability)” value is listed as “toxic”.
As to `O=c1sc2ccccc2n1Cc1ccccc1` [Compound 7, 3-benzyl-1,3-benzothiazol-2-one], on SARS-CoV-2 M^pro, the “inhibition curve, in words” value is “atypical inhibition results”. In addition, the “change of inhibition results upon addition of detergent” value at SARS-CoV-2 M^pro is “did not change significantly”. Moreover, the IC50 at SARS-CoV-2 M^pro (IC50, Figure 2(l), Trial 1) was determined as 174 nM; at SARS-CoV-2 M^pro (IC50, Figure 2(l), Trial 2), 179 nM; on SARS-CoV-2 M^pro (IC50, Figure 2(l), With Triton-X100), 241 nM. The “potency, in words” value on SARS-CoV-2 M^pro (at low concentrations, fluorescent signal increased at high compound concentrations) is on record as “highly potent”. Further, the “effect on cytopathogenic effect (CPE) of the virus” value in data set [1] (across all the viral doses tested, MRC-5, 72 h) is recorded as “very significant reduction in CPE”. In addition, in the data set with MRC-5 cells, the “cellular toxicity (cell viability)” value was “minimal toxicity”. Moreover, in the data set with HCoV 229E, the “effect on viral titres (TCID50)” value is “substantial reduction in the viral load”.
With `[O-][n+]1ccccc1SSc1cccc[n+]1[O-]` [Compound 8, dipyrithione], the “change of inhibition results upon addition of detergent” value on SARS-CoV-2 M^pro is recorded as “did not change significantly”. Further, the IC50 at SARS-CoV-2 M^pro (setting [4]) was determined as 172 nM; on SARS-CoV-2 M^pro (setting [5]) it was 171 nM; on SARS-CoV-2 M^pro (setting [6]), 266 nM; at SARS-CoV-2 M^pro (setting [2]) it was 172 ± 25 nM; on SARS-CoV-2 M^pro (setting [7]), 285 ± 38 nM; at SARS-CoV-2 M^pro (setting [8]), 173 ± 23 nM. Further, on SARS-CoV-2 M^pro (read-out: IC50), the IC50 was 180 nM. The “cellular toxicity (cell viability)” value in the data set on MRC-5 cells is “limited toxicity”.
On to `c1ccc2sc(SSc3nc4ccccc4s3)nc2c1` [Compound 1], for which, on SARS-CoV-2 M^pro, the “change of inhibition results upon addition of detergent” value is on record as “did not change significantly”. Further, the IC50 on SARS-CoV-2 M^pro (setting [4]) was 714 nM; at SARS-CoV-2 M^pro (setting [5]), 768 nM; at SARS-CoV-2 M^pro (setting [6]) it was 622 nM; on SARS-CoV-2 M^pro (setting [2]) it was 714 ± 182 nM; at SARS-CoV-2 M^pro (setting [7]), 625 ± 102 nM; at SARS-CoV-2 M^pro (setting [8]), 786 ± 151 nM. For the same molecule, the IC50 on SARS-CoV-2 M^pro (read-out: IC50) is 710 nM. Further, the “effect on cytopathogenic effect (CPE) of the virus” value was “some reduction in CPE” in data set [1] and “no inhibitory effect” in data set [1] (high multiplicity of infection (high viral load), MRC-5, 72 h). The “cellular toxicity (cell viability)” value in the data set with MRC-5 cells is given as “minimal toxicity”.
At SARS-CoV-2 M^pro (setting [3]), `c1ccc(Sc2ncnc3c2oc2ccccc23)cc1` [Compound 6] showed an IC50 of 4980 ± 1280 nM.

For the origin of these results see publication PMC9621234, “Ligand-based discovery of coronavirus main protease inhibitors using MACAW molecular embeddings” (Journal of Enzyme Inhibition and Medicinal Chemistry, 2022).
